Experimental data from patent US20240123022A1, “A STABLE ANTI-ANGIOGENIC AND ANTI-INFLAMMATORY PHARMACEUTICAL FORMULATION AND PHARMACEUTICAL COMBINATION FOR TREATMENT AND PREVENTION OF PSORIASIS” (priority 2021, published 2024).

How the values were obtained:
[1] = tested on: TPA induced ear inflammation model in C57BL/6 mice; type: in vivo
Excerpt: The experimental procedure and doses and route of administration are same as IMQ model.

[2] = tested on: P-VEGFR-2, VEGFR-2, NRP-1, Akt, p-NRP1, P-Akt, ERK1/2, P-ERK1/2, p-38, P-p-38; assay: Biomarker estimation by western blotting; type: cell-based; details: 500 and 1000 μg/ml, western blot
Excerpt: Targets screened are as follows: P-VEGFR-1, P-VEGFR-2, P-VEGFR-3, VEGFR-1, VEGFR-2, VEGFR-3, NRP-1, MPO, Akt, PAkt, ERK1/2, P-ERK1/2, MAPK, p-38, P-p-38, p-NRP1 and GAPDH.

HaCaT cell lines = assay: Cell cycle assay (Sub-G0/G1, pro-apoptotic effect); type: cell-based, human; details: 48 h, vs untreated
Excerpt: HaCaT cell lines were used as test system since it is widely used for studying anti-psoriatic effects. Curcumin dissolved in DMSO was taken as positive control for validation purpose. Apoptotic effect on HaCaT cell lines was detected by flow cytometry analysis.

[3] = tested on: Salmonella typhimurium tester strains; assay: Bacterial reverse mutation test; type: cell-based; details: five tester strains, upto 1000 μg/plate, with and without metabolic activation
Excerpt: 17.1: Bacterial Reverse Mutation Test in Salmonella typhimurium Tester Strains:
This was confirmed by in vivo studies which are mandatory for any drug, as a part of safety toxicological studies.

[4] = tested on: TNF-α, IFN-γ, TARC, TSLP, IL-6, IL-8, IL-23, IL-17A and IL-1-0 levels; assay: Cytokine levels in LPS stimulated RAW264.7 cells and HaCaT cells; type: cell-based; details: LPS stimulated RAW264.7 and HaCaT cells, vs untreated controls
Excerpt: In pathogenesis of psoriasis, angiogenesis and tyrosine kinases involves cell proliferation, cell migration, DNA Fragmentation and tube formation in endothelial cells. […] RAW264.7 cells (Murine macrophage cell line) which is stimulated with LPS and in HaCaT cells human keratinocytes (HaCaT) TNF-α, IFN-γ, TARC, TSLP, IL-6, IL-8, IL-23, IL-17A and IL-1-0 levels were overexpressed in disease pathogenesis, but when treated with IS217, all the above mentioned cytokines levels are decreased when compared with untreated controls.

HUVEC cells = type: cell-based, human; details: 100-1000 μg/ml
Procedure: The study was performed to determine anti-angiogenic effect of IS217 in HUVEC cell line by assessing anti-proliferative effects of test item. Here XTT assay was used to determine the cell viability in test cells. HUVEC cells were treated with the test item IS217 (100-1000 μg/ml) and bevacizumab (1 mg/ml) concentrations was used as positive controls.

[5] = Stability of IS217 API, long-term condition −20 ± 5° C.; type: physicochemical; details: for Appearance, change / Assessment of container closure system, change / Clarity of solution, change / Color of Solution, change / Color, change / Odor, change: long-term −20 ± 5° C.
Procedure: The purpose of stability testing is to provide evidence on how the quality of a drug substance or drug product varies with time under the influence of a variety of environmental factors such as temperature, humidity, etc. and to establish a re-test period for the drug substance or a shelf life for the drug product and recommended storage conditions. The study was conducted according to the WHO and Schedule-Y guidelines.
The drug substance is a lyophilized white fluffy powder, and it was filled at sterile condition in glass injection vial which has airlock-rubber capping. This container closure system is the same as or simulates the packaging proposed for storage and distribution.
This study has included testing of those attributes of the drug substance that are susceptible to change during storage and are likely to influence quality, safety and/or efficacy. The testing was covered, as appropriate, the physical and chemical attributes.
The following test attributes have been selected according to above said guidelines. • Appearance; odour; colour; colour of solution (when the drug substance is soluble in solvent); clarity of solution; degradation and assessment of container closure system
Testing frequency for long-term studies have been designed as per schedule Y. […]
The studies were conducted under appropriate storage conditions (with appropriate tolerances) that test drug substance thermal stability and its sensitivity to moisture. The drug substance is intended to store for 24 months. Accordingly, long term stability studies were done for 24 months. The details of the storage conditions have been furnished hereunder.
23.4: Long term stability study results Name of the Product: IS217; Batch size: 200 m·mol; Storage Conditions: −20±5° C.

## H-FAKKFAKKFK-OH [IS217, H-Phe-Ala-Lys-Lys-Phe-Ala-Lys-Lys-Phe-Lys-OH]
[1]; 0.60 mg/kg
  reduction in IL-23 levels in ear tissue homogenate: 42.12%
[1]; 1.2 mg/kg
  maximum ear thickness inhibition: 80.36%
[1]; 1.2 mg/kg SC, conclusion of in vivo studies, model not stated
  MPO levels: significant reduction
[1]; 1.2 mg/kg-4.8 mg/kg
  absolute ear thickness: significant reduction
[1]; IS217 (all doses) < MTX, p < 0.001
  ear thickness (absolute, histopathology, ear punch biopsy): Decreased ear
[1]; p < 0.01
  Ear homogenate ELISA TNF-α, IL-23, IL-6, MPO: MPO reduction
[2]
  protein levels of P-VEGFR-2, VEGFR-2, NRP-1, Akt, p-NRP1, P-Akt, ERK1/2, P-ERK1/2, p-38, P-p-38: downregulated
HaCaT cell lines; 100 μg/mL
  increase in pro-apoptotic cells (Sub-G0/G1 population): 1.2 fold
HaCaT cell lines; 500 μg/mL
  increase in pro-apoptotic cells (Sub-G0/G1 population): 5.0 fold
HaCaT cell lines; 1000 μg/mL
  increase in pro-apoptotic cells (Sub-G0/G1 population): 6.8 fold
HaCaT cell lines; 5000 μg/mL
  increase in pro-apoptotic cells (Sub-G0/G1 population): 1.1 fold
[3]
  mutagenicity (gene mutations at histidine locus): non mutagenic
[4]
  cytokines levels (TNF-α, IFN-γ, TARC, TSLP, IL-6, IL-8, IL-23, IL-17A, IL-1-0): decreased
HUVEC cells
  percentage inhibition of FBS induced proliferation of HUVEC cells: effective upto 1000 μg/ml only
[5]; 6 months at long term stability condition −20 ± 5° C.
  stability of IS217 API: stable
[5]; 1st month
  Appearance, change: No change
  Assessment of container closure system, change: No change
  Clarity of solution, change: No change
  Color of Solution, change: No change
  Color, change: No change
  Odor, change: No change
[5]; 2nd month
  Appearance, change: No change
  Assessment of container closure system, change: No change
  Clarity of solution, change: No change
  Color of Solution, change: No change
  Color, change: No change
  Odor, change: No change
[5]; 3rd month
  Appearance, change: No change
  Assessment of container closure system, change: No change
  Clarity of solution, change: No change
  Color of Solution, change: No change
  Color, change: No change
  Odor, change: No change
[5]; 6th month
  Appearance, change: No change
  Assessment of container closure system, change: No change
  Clarity of solution, change: No change
  Color of Solution, change: No change
  Color, change: No change
  Odor, change: No change
[5]; −20 ± 5° C., 1 M
  API calculated on the anhydrous basis (OAB): 98.98%
  Related substances (By HPLC), Any Max. Impurity: 0.64%
  Related substances (By HPLC), Total Impurity: 0.85%
  Solubility (Soluble in water): Complies
  Water Content (By Karl Fischer-Titrator): 4.89% w/w
[5]; −20 ± 5° C., 2 M
  API calculated on the anhydrous basis (OAB): 99.14%
  Related substances (By HPLC), Any Max. Impurity: 0.64%
  Related substances (By HPLC), Total Impurity: 0.85%
  Solubility (Soluble in water): Complies
  Water Content (By Karl Fischer-Titrator): 4.83% w/w
[5]; −20 ± 5° C., 3 M
  API calculated on the anhydrous basis (OAB): 99.15%
  Related substances (By HPLC), Any Max. Impurity: 0.72%
  Related substances (By HPLC), Total Impurity: 0.85%
  Solubility (Soluble in water): Complies
  Water Content (By Karl Fischer-Titrator): 4.52% w/w
[5]; −20 ± 5° C., 6 M
  API calculated on the anhydrous basis (OAB): 99.40%
  Related substances (By HPLC), Any Max. Impurity: 0.35%
  Related substances (By HPLC), Total Impurity: 0.61%
  Solubility (Soluble in water): Complies
  Water Content (By Karl Fischer-Titrator): 4.99% w/w
[5]; −20 ± 5° C., Initial
  API calculated on the anhydrous basis (OAB): 99.28%
  Related substances (By HPLC), Any Max. Impurity: 0.60%
  Related substances (By HPLC), Total Impurity: 0.72%
  Remark: Complies
  Solubility (Soluble in water): Complies
  Water Content (By Karl Fischer-Titrator): 4.66% w/w
